Experimental data as given in patent US10125101B2, “Indanylaminopyridylcyclopropanecarboxylic acids, pharmaceutical compositions and uses thereof” (Boehringer Ingelheim International GmbH, priority 2016, dated 2018).
Values after ≈ are worked out from the molar mass of the structure shown. Read-outs that look alike come from different tables or passages of the source.

Columns and labels:
[1] = molecular target: cytochrome P450 2C9-isoenzyme (Homo sapiens (Human), UniProt P11712); assay: Inhibition of CYP-2C9 (diclofenac hydroxylation, human liver microsomes); type: in vitro ADME; conditions: diclofenac 10 μM, 37° C.
cytochrome P450 2C9-isoenzyme, sequence (P11712 whole entry): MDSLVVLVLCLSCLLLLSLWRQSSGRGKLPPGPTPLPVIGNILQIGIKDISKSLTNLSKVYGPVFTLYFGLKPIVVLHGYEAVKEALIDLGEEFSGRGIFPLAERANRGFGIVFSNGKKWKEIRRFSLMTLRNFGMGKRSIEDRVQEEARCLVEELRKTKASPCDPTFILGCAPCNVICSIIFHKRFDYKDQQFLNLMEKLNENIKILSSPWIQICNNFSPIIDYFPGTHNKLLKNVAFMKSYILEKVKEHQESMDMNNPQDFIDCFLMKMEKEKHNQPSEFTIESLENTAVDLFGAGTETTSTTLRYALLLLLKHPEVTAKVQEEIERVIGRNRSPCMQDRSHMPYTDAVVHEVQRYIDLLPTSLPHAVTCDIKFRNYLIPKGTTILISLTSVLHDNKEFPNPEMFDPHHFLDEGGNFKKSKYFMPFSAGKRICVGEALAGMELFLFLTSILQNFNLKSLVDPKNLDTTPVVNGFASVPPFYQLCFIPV
Experimental: (§1) All assays are carried out on a robotic system in 96 well plates. The final incubation volume contains TRIS buffer (0.1 M), MgCl2 (5 mM), human liver microsomes (0.1 mg/mL), diclofenac (10 μM) and the test compound at five different concentrations or no compound (high control) in duplicate (e.g., highest concentration 10-50 μM with subsequent serial 1:4 dilutions). Following a short preincubation period, reactions are started with the cofactor (NADPH, 1 mM) and stopped by cooling the incubation down to 8° C. and subsequently by addition of one volume of acetonitrile. An internal standard solution—the stable isotope ^13C6-hydroxydiclofenac—is added after quenching of incubations. Peak area analyte (=metabolite formed) and internal standard is determined by LC-MS/MS. The resulting peak area ratio analyte to internal standard in these incubations is compared to a control activity containing no test compound. Within each of the assay runs, the IC50 of a positive control inhibitor (sulfaphenazole) is determined.

[2] = molecular target: cytochrome P450 2C8-isoenzyme (Homo sapiens (Human), UniProt P10632); assay: Inhibition of CYP-2C8 (amodiaquine deethylation, human liver microsomes); type: in vitro ADME; conditions: amodiaquine 1 μM, 37° C.
cytochrome P450 2C8-isoenzyme, sequence (P10632 whole entry): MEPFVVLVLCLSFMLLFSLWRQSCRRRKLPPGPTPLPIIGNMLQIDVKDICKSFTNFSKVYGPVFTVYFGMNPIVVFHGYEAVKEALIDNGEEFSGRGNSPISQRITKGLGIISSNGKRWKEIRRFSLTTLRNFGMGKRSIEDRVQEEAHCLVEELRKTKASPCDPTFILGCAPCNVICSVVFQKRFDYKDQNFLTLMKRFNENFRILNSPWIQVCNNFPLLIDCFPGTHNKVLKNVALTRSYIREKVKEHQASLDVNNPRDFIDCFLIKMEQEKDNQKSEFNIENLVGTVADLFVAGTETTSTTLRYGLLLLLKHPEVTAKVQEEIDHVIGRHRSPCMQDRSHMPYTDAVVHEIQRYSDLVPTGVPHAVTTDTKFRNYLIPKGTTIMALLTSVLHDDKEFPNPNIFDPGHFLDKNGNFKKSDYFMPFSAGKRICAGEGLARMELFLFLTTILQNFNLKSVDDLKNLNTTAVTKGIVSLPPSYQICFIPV
Experimental: as §1, with “microsomes (0.05” for “microsomes (0.1”, “mg/mL), amodiaquine (1” for “mg/mL), diclofenac (10”, “duplicate (e.g.” for “duplicate (e.g.,”, “isotope d5-desethylamodiaquine—is” for “isotope ^13C6-hydroxydiclofenac—is”, “inhibitor (Montelukast)” for “inhibitor (sulfaphenazole)”

human GPR40 receptor = human GPR40 receptor (Homo sapiens (Human), UniProt O14842); assay: IP1 accumulation measurements using the IPOne assay system; type: cell-based
human GPR40 receptor, sequence (O14842 whole entry): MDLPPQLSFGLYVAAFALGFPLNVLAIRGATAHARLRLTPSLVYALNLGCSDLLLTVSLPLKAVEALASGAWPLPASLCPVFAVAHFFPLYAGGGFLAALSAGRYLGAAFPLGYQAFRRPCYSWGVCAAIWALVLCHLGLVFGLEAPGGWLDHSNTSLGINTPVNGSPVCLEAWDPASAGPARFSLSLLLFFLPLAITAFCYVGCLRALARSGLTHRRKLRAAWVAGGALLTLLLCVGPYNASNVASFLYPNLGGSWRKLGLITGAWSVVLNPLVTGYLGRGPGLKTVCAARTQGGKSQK
Experimental: IP1 accumulation measurements using the IPOne assay system—1321N1 cells stably expressing human GPR40 receptor (Euroscreen, Belgium) are seeded 24 h before the assay in white 384-well plates in culture medium containing 10% FCS, 1% Na-Pyruvate and 400 μg/mL G418. IP1 is assayed according to the manufacturer's description (Cisbio Bioassays, France). In brief, the assay is started by substitution of the culture medium by stimulation buffer (Hepes 10 mM, CaCl2 1 mM, MgCl2 0.5 mM, KCl 4.2 mM, NaCl 146 mM, glucose 5.5 mM and LiCl 50 mM, pH 7.4). Cells are stimulated for 1 h at 37° C., 5% CO2 by addition of the compounds that are diluted in stimulation buffer containing LiCl. Assays are stopped by adding HTRF-conjugates (IP1-d2 and Anti-IP1 cryptate Tb) and lysis buffer, provided by the manufacturer. After an incubation time of 1 h at room temperature plates are measured using an EnVision™, Perkin Elmer. The obtained fluorescence ratios at 665/615 […] are then used to calculate the pEC50 values using Assay Explorer 3.3 Software (Accelrys, Inc.) by interpolation using an IP1 reference curve and subsequent sigmoidal curve fitting allowing for a variable hill slope.

Aqueous solubility = type: physicochemical; conditions: buffer pH 2.2, 24 h shaking, 2.5% DMSO; for solubility at 24 h: aqueous buffer, kinetic from dmso stock
Experimental: Starting from a 10 mM DMSO stock solution aliquots are diluted with acetonitrile/water (1/1) or buffer, respectively. After 24 h of shaking, the solutions are filtrated and analyzed by LC-UV. The amount dissolved in buffer is compared to the amount in the acetonitrile solution.

[3] = 1321N1 cells stably expressing human GPR40, 1 h stimulation, read-out: EC50
[4] = head-to-head compilation, given as IC50, values equal the EC50 of Table 2, read-out: GPR40: IC50

SMILES: Cc1cc(-c2ccnn2C)cc(C)c1-c1ccc(F)c2c1CC[C@H]2Nc1ccc([C@H]2C[C@@H]2C(=O)O)nc1 [Example 19]
- IC50 [1]: 26 µM
- IC50 [2]: 7 µM
- EC50 (human GPR40 receptor; [3]): 0.012 µM
- Solubility at pH value 2.2 (Aqueous solubility): 95 μg/mL

SMILES: COc1cc(-c2cc(C)c(-c3ccc(F)c4c3CC[C@H]4Nc3ccc([C@H]4C[C@@H]4C(=O)O)nc3)c(C)c2)ccn1 [Example 22]
- IC50 [1]: 19 µM
- IC50 [2]: 8 µM
- EC50 (human GPR40 receptor; [3]): 0.005 µM
- Solubility at pH value 2.2 (Aqueous solubility): 106 μg/mL

SMILES: Cc1cc(OCCC(C)(C)O)cc(C)c1-c1ccc(F)c2c1CC[C@H]2Nc1ccc([C@H]2C[C@@H]2C(=O)O)nc1 [Example 2, (1S,2S)-2-(5-{(R)-7-Fluoro-4-[4-(3-hydroxy-3-methyl-butoxy)-2,6-dimethyl-phenyl]-indan-1-ylamino}-pyridin-2-yl)-cyclopropanecarboxylic acid]
- IC50 [1]: > 50 µM
- IC50 [2]: 20 µM
- EC50 (human GPR40 receptor; [3]): 0.004 µM
- EC50 (human GPR40 receptor; [4]): 0.004 µM
- solubility at 24 h (Aqueous solubility): 100 µg/mL (≈ 193 µM)

SMILES: Cc1cc(-c2nnn(C)n2)cc(C)c1-c1cccc2c1CC[C@H]2Nc1ccc([C@H]2C[C@@H]2C(=O)O)nc1 [Example 6, (1S,2S)-2-(5-{(R)-4-[2,6-Dimethyl-4-(2-methyl-2H-tetrazol-5-yl)-phenyl]-indan-1-ylamino}-pyridin-2-yl)-cyclopropanecarboxylic acid]
- IC50 [1]: > 50 µM
- IC50 [2]: 29 µM
- EC50 (human GPR40 receptor; [3]): 0.003 µM
- solubility at 24 h (Aqueous solubility): 68 µg/mL (≈ 141 µM)

SMILES: CC(C)c1ccccc1-c1ccc(F)c2c1CC[C@H]2Nc1ccc([C@H]2C[C@@H]2C(=O)O)nc1 [Example 36]
- IC50 [1]: 22 µM
- IC50 [2]: 10 µM
- EC50 (human GPR40 receptor; [3]): 0.015 µM
- Solubility at pH value 2.2 (Aqueous solubility): 91 μg/mL

SMILES: Cc1cc(OCC(C)(C)O)cc(C)c1-c1ccc(F)c2c1CC[C@H]2Nc1ccc([C@H]2C[C@@H]2C(=O)O)nc1 [Example 34]
- IC50 [1]: > 50 µM
- IC50 [2]: 45 µM
- EC50 (human GPR40 receptor; [3]): 0.01 µM
- Solubility at pH value 2.2 (Aqueous solubility): 111 μg/mL

SMILES: Cc1cnc(-c2cc(C)c(-c3ccc(F)c4c3CC[C@H]4Nc3ccc([C@H]4C[C@@H]4C(=O)O)nc3)c(C)c2)nc1 [Example 21]
- IC50 [1]: 36 µM
- IC50 [2]: 15 µM
- EC50 (human GPR40 receptor; [3]): 0.002 µM
- Solubility at pH value 2.2 (Aqueous solubility): 91 μg/mL

SMILES: Cc1cc(-c2nnn(CC(C)(C)O)n2)cc(C)c1-c1ccc(F)c2c1CC[C@H]2Nc1ccc([C@H]2C[C@@H]2C(=O)O)nc1 [Example 20]
- IC50 [1]: > 50 µM
- IC50 [2]: 34 µM
- EC50 (human GPR40 receptor; [3]): 0.002 µM
- Solubility at pH value 2.2 (Aqueous solubility): 113 μg/mL

SMILES: Cc1cc(C(=O)O)cc(C)c1-c1ccc(F)c2c1CC[C@H]2Nc1ccc([C@H]2C[C@@H]2C(=O)O)nc1 [Example 23]
- IC50 [1]: > 50 µM
- IC50 [2]: 43 µM
- EC50 (human GPR40 receptor; [3]): 0.668 µM
- Solubility at pH value 2.2 (Aqueous solubility): 97 μg/mL

SMILES: Cc1cc(OCCC(C)(C)O)cc(C)c1-c1ccc(F)c2c1CC[C@H]2Nc1ccc([C@@H]2C[C@H]2C(=O)O)nc1 [Example 3, (1R,2R)-2-(5-{(R)-7-Fluoro-4-[4-(3-hydroxy-3-methyl-butoxy)-2,6-dimethyl-phenyl]-indan-1-ylamino}-pyridin-2-yl)-cyclopropanecarboxylic acid]
- EC50 (human GPR40 receptor; [3]): 0.107 µM

SMILES: CNC(=O)c1cc(C)c(-c2ccc(F)c3c2CC[C@H]3Nc2ccc([C@H]3C[C@@H]3C(=O)O)nc2)c(C)c1 [Example 27]
- IC50 [1]: > 50 µM
- IC50 [2]: > 50 µM
- EC50 (human GPR40 receptor; [3]): 0.148 µM
- Solubility at pH value 2.2 (Aqueous solubility): 112 μg/mL

SMILES: Cc1cc(C(=O)NCC(C)(C)O)cc(C)c1-c1ccc(F)c2c1CC[C@H]2Oc1ccc([C@H]2C[C@@H]2C(=O)O)cc1 [Example 15 in WO 2013/178575, reference compound]
- IC50 [1]: 31 µM
- IC50 [2]: 10 µM
- solubility at 24 h (Aqueous solubility): < 1 µg/mL

SMILES: Cc1cc(OCC2CCOCC2)cc(C)c1-c1ccc(F)c2c1CC[C@H]2Nc1ccc([C@H]2C[C@@H]2C(=O)O)nc1 [Example 26]
- IC50 [1]: 16 µM
- IC50 [2]: 14 µM
- EC50 (human GPR40 receptor; [3]): 0.006 µM
- Solubility at pH value 2.2 (Aqueous solubility): 90 μg/mL

SMILES: Cc1cc(OCC2(O)CCOCC2)cc(C)c1-c1ccc(F)c2c1CC[C@H]2Nc1ccc([C@H]2C[C@@H]2C(=O)O)nc1 [Example 37]
- IC50 [1]: > 50 µM
- IC50 [2]: 41 µM
- EC50 (human GPR40 receptor; [3]): 0.019 µM
- Solubility at pH value 2.2 (Aqueous solubility): 119 μg/mL

SMILES: Cc1cc(OCC(C)(C)C#N)cc(C)c1-c1ccc(F)c2c1CC[C@H]2Nc1ccc([C@H]2C[C@@H]2C(=O)O)nc1 [Example 17]
- IC50 [1]: 36 µM
- IC50 [2]: 19 µM
- EC50 (human GPR40 receptor; [3]): 0.01 µM
- Solubility at pH value 2.2 (Aqueous solubility): 64 μg/mL

SMILES: Cc1cc(-c2ccn(C)c(=O)n2)cc(C)c1-c1ccc(F)c2c1CC[C@H]2Nc1ccc([C@H]2C[C@@H]2C(=O)O)nc1 [Example 18]
- IC50 [1]: > 50 µM
- IC50 [2]: 21 µM
- EC50 (human GPR40 receptor; [3]): 0.005 µM
- Solubility at pH value 2.2 (Aqueous solubility): >130 μg/mL

SMILES: Cc1cc(OCCCS(C)(=O)=O)cc(C)c1-c1ccc(F)c2c1CC[C@H]2Nc1ccc([C@H]2C[C@@H]2C(=O)O)nc1 [Example 4, (1S,2S)-2-(5-{(R)-7-Fluoro-4-[4-(3-methanesulfonyl-propoxy)-2,6-dimethyl-phenyl]-indan-1-ylamino}-pyridin-2-yl)-cyclopropanecarboxylic acid]
- IC50 [1]: > 50 µM
- IC50 [2]: > 50 µM
- EC50 (human GPR40 receptor; [3]): 0.007 µM
- EC50 (human GPR40 receptor; [4]): 0.007 µM
- solubility at 24 h (Aqueous solubility): 97 µg/mL (≈ 176 µM)

SMILES: Cc1cc(C(=O)N(C)C)cc(C)c1-c1ccc(F)c2c1CC[C@H]2Nc1ccc([C@H]2C[C@@H]2C(=O)O)nc1 [Example 39]
- IC50 [1]: > 50 µM
- IC50 [2]: > 50 µM
- EC50 (human GPR40 receptor; [3]): 0.148 µM
- Solubility at pH value 2.2 (Aqueous solubility): 118 μg/mL

SMILES: Cc1cc(OCC(=O)O)cc(C)c1-c1ccc(F)c2c1CC[C@H]2Nc1ccc([C@H]2C[C@@H]2C(=O)O)nc1 [Example 16]
- IC50 [1]: > 50 µM
- IC50 [2]: > 50 µM
- EC50 (human GPR40 receptor; [3]): 0.924 µM
- Solubility at pH value 2.2 (Aqueous solubility): 96 μg/mL

SMILES: Cc1cc(-c2nnn(C)n2)cc(C)c1-c1ccc(F)c2c1CC[C@H]2Nc1ccc([C@H]2C[C@@H]2C(=O)O)nc1 [Example 30]
- IC50 [1]: > 50 µM
- IC50 [2]: 20 µM
- EC50 (human GPR40 receptor; [3]): 0.003 µM

SMILES: Cc1c(C#N)cccc1-c1ccc(F)c2c1CC[C@H]2Oc1ccc([C@H]2C[C@@H]2C(=O)O)cc1 [Example 54 in WO 2013/178575, reference compound]
- IC50 [1]: 10 µM
- IC50 [2]: 9 µM
- solubility at 24 h (Aqueous solubility): < 1 µg/mL

SMILES: Cc1nnc(-c2ccc(-c3cccc4c3CC[C@H]4Nc3ccc([C@H]4C[C@@H]4C(=O)O)nc3)cc2)o1 [Example 10, (1S,2S)-2-(5-{(R)-4-[4-(5-Methyl-[1,3,4]oxadiazol-2-yl)-phenyl]-indan-1-ylamino}-pyridin-2-yl)-cyclopropanecarboxylic acid]
- EC50 (human GPR40 receptor; [3]): 0.146 µM

SMILES: Cc1cccc(C)c1-c1ccc(F)c2c1CC[C@H]2Oc1ccc(C2CC2C(=O)O)cc1 (stereo partly drawn) [Example 33 in WO 2013/178575, reference compound]
- IC50 [1]: 7 µM
- IC50 [2]: 5 µM

SMILES: Cc1cc(OCCCS(C)(=O)=O)cc(C)c1-c1ccc(F)c2c1CC[C@H]2Oc1ccc([C@H]2C[C@@H]2C(=O)O)nc1 [Example 11 in WO 2013/178575, reference compound]
- IC50 [1]: 17 µM
- IC50 [2]: 12 µM
- EC50 (human GPR40 receptor; [4]): 0.008 µM

SMILES: Cc1cc(OCCC(C)(C)O)cc(C)c1-c1ccc(F)c2c1CC[C@H]2Nc1ccc(C2C[C@@H]2C(=O)O)nc1 (stereo partly drawn) [Example 1, trans-2-(5-{(R)-7-Fluoro-4-[4-(3-hydroxy-3-methyl-butoxy)-2,6-dimethyl-phenyl]-indan-1-ylamino}-pyridin-2-yl)-cyclopropanecarboxylic acid]
- EC50 (human GPR40 receptor; [3]): 0.011 µM
